Measured values published in patent US4732898A, “2-(2-aryl-2-oxoalkylidene) analogs of-3,5-pyridinedicarboxylic acid dialkyl esters useful for treatment of cardiovascular disorders” (Warner-Lambert Company, priority 1987, dated 1988).
Read-outs that look alike come from different tables or passages of the source.

Tests used:
[1] = test system: isolated Langendorff rat heart; experiment: inotropic and vascular activities in the isolated Langendorff rat heart preparation (CVIH); conditions: isolated perfused rat heart
Protocol: TEST FOR INOTROPIC, CHRONOTROPIC, AND VASCULAR ACTIVITIES IN THE ISOLATED LANGENDORFF RAT HEART PREPARATION (CARDIOVASCULAR ISOLATED HEART - CVIH)
Male rats (400-600 gms) are pretreated with 2000 units Na heparin (Parke-Davis) and anesthetized with Na pentobarbital (50 mg/kg, Butler Co.) administered intraperitoneally. Once anesthetized, the rat heart is rapidly excised, the ascending aorta fitted to the aorta perfusion cannula, and secured with a ligature. The coronary arteries are perfused initially at a rate of about 15 ml/min for two to three minutes, after which they are perfused at constant pressure of 70 mm Hg and temperature of 37° C. The electrocardiogram (ECG) is recorded using two platinum electrodes positioned at the base and apex of the left ventricle (LV). The LV is instrumented via the mitral valve with a 4F Millar catheter tip pressure transducer. The catheter is advanced to the apex then withdrawn slightly. Once properly positioned, the catheter is anchored to the perfusion cannulae with an alligator clip. A second heart is excised, cannulated, and perfused by the same method outlined above. Both hearts are tested in parallel. The standard physiological salt solution (PSS) is a modified Krebs Henseleit bicarbonate buffer of the following composition in mM concentration: NaCl, 127; NaHCO^3, 25; dextrose, 5.5; Na Pyruvate, 2.0; KCl, 4.7; MgSO^4, 1.1; KH 2PO^4, 1.2; CaCl^2 ·2H^2, 2.5; CaNa^2 EDTA, 0.05.
A 30-minute stabilization period is observed before starting the test protocol.
A microprocessor control system is used as a servo mechanism which permits coronary perfusion pressure (CPP) and drug concentration to be maintained constant independent of changes in coronary flow. The level at which CPP and drug concentration are maintained can be changed by commands communicated through the microprocessor keyboard. Dose-response curves are carried out by perfusing concentrated drug solution (DC) at rates proportional to total coronary flow (CFT). Drug concentrations are increased by proportionate increases in the rate of DC infusion over CFT via the microprocessor keyboard. The proportional flow rates for DC:CFT are about 0.00005:1 at the low end and 0.0015:1 at the high end of the dose response curve.
Dose-response curves encompassing at least two log units are carried out in one-half log increments starting at a subthreshold dose and ending at a dose which produces near maximal response.
Measurements for CVIH are maximum positive first derivative of LVP (LV+dP/dtmax), heart rate (HR), and coronary flow (CF). Units are: LV+dP/dtmax, millimeters of mercury/second (mm Hg/sec); HR, beats/minute (bpm) and CF, milliliters/minute (ml/min). LV+dP/dtmax is derived from the LVP signal by a differential amplifier and recorded. HR is calculated from the ECG strip chart recording and CF is calculated by recording analog outputs from pumps 1 and 2. Outputs from pump #1 =CFT and the output from pump #2 =CF for heart B (CFB). CF for heart A (CFA) is calculated ([…]). All pumps are calibrated weekly or when pump tubing is replaced.
Compounds are solubilized in DMSO and diluted with water when possible. EC^25 data are obtained from data that is digitized and averaged in a conventional manner.

dihydropyridine receptor = experiment: inhibition of [3H]-nitrendipine binding in rat brain homogenate; conditions: read-out: IC50 (index of dihydropyridine receptor affinity; inhibition of [3H]-nitrendipine binding)
Text: *Index of dihydropyridine receptor affinity: IC50 for inhibition of
[^3 H]--nitrendipine binding in rat brain homogenate.

anesthetized dog = experiment: in vivo myocardial inotropic activity in the anesthetized dog; conditions: 1 mg/kg, femoral vein, pentobarbital anesthetized dog
Protocol: TEST FOR IN VIVO MYOCARDIAL INOTROPIC ACTIVITY IN THE ANESTHETIZED DOG
Adult mongrel dogs of either sex are anesthetized with pentobarbital, 35 mg/kg, IV, and are maintained under anesthesia with a continuous infusion of pentobarbital, 3.5 mg/kg/hr. The trachea is intubated, but the animals are permitted to breathe spontaneously. A cannula is inserted into the femoral vein for administering test agents. A Millar catheter tip pressure transducer or a fluid filled catheter is inserted into the ascending aorta via the femoral artery for measuring pressure. A Millar catheter tip pressure transducer is passed into the left ventricle via the left carotid artery for measuring left ventricular blood pressure. Needle electrodes are placed subcutaneously for recording a lead II electrocardiogram. Before administering test agents, control data is acquired over a period of at least thirty minutes.
The test agent is dissolved in dimethylacetamide. Each dose is administered in a volume of 0.5 ml over a period of one minute. Appropriate vehicle controls are also administered.

[2] = test system: isolated Langendorff rat heart; experiment: inotropic and vascular activities in the isolated Langendorff rat heart preparation (CVIH); conditions: LV+dP/dtmax; isolated perfused rat heart; EC20 instead of EC25; read-out: EC20 Contractility
[3] = LV+dP/dtmax, read-out: EC25 Contractility
[4] = coronary flow, read-out: EC25 Flow

Molecule	EC25 [1, 3] [µM]	EC25 [1, 4] [µM]	IC50 (dihydropyridine receptor) [nM]	decrease in blood pressure (anesthetized dog) [%]	increase in contractility (anesthetized dog) [%]	increase in heart rate (anesthetized dog) [%]	EC20 [2] [µM]
CCOC(=O)C1=C(C)N/C(=C\C(=O)c2ccccc2)C(C(=O)OCC)C1c1ccccn1 (racemic) [Example 16, (2Z,3α,4β)-(±)-Diethyl-1,2,3,4-tetrahydro-6-methyl-2-[2-oxo-2-phenylethylidene]-4-[2-pyridyl]-3,5-pyridinedicarboxylate]	1.0	1.0	25				
CCOC(=O)C1=C(C)N/C(=C\C(=O)c2ccccc2)[C@@H](C(=O)OCC)[C@@H]1c1ccccc1C(F)(F)F (relative stereo) [Example 1, (2Z,3α,4β)-(±)-Diethyl-1,2,3,4-tetrahydro-6-methyl-2-(2-oxo-2-phenylethylidene)-4-[2-(trifluoromethyl)-phenyl]-3,5-pyridinedicarboxylate]	0.1	0.3	280				
CCOC(=O)C1=C(C)N/C(=C\C(=O)c2ccncc2)[C@@H](C(=O)OCC)[C@@H]1c1ccccc1C(F)(F)F (relative stereo) [Example 2]	> 3	< 0.1	20	21	99	67	
CCOC(=O)C1=C(C)N/C(=C\C(=O)c2ccc(Cl)cc2)[C@@H](C(=O)OCC)[C@@H]1c1ccccc1C(F)(F)F (relative stereo) [Example 3, (2Z,3α,4β)-Diethyl-2-[2-(4-chlorophenyl)-2-oxoethylidene]-1,2,3,4-tetrahydro-6-methyl-4-[2-(trifluoromethyl)phenyl]-3,5-pyridinedicarboxylate]	< 0.1	< 0.1	190				
CCOC(=O)C1=C(C)N/C(=C\C(=O)c2ccc(F)cc2)[C@@H](C(=O)OCC)[C@@H]1c1ccccc1C(F)(F)F (relative stereo) [Example 4, (2Z,3α,4β)-Diethyl-2-[2-(4-fluorophenyl)-2-oxoethylidene]-1,2,3,4-tetrahydro-6-methyl-4-[2-(trifluoromethyl)phenyl]-3,5-pyridinedicarboxylate]	> 3	0.3	52				
CCOC(=O)C1=C(C)N/C(=C\C(=O)c2ccc(C)cc2)[C@@H](C(=O)OCC)[C@@H]1c1ccccc1C(F)(F)F (relative stereo) [Example 5, (2Z,3α,4β)-Diethyl-2-[2-(4-methylphenyl)-2-oxoethylidene]-1,2,3,4-tetrahydro-6-methyl-4-[2(trifluoromethyl)phenyl]-3,5-pyridinedicarboxylate]	> 3	0.13	360				
CCOC(=O)C1=C(C)N/C(=C\C(=O)c2ccc(N(C)C)cc2)[C@@H](C(=O)OCC)[C@@H]1c1ccccc1C(F)(F)F (relative stereo) [Example 6, (2Z,3α,4β)-(±) -Diethyl-1,2,3,4-tetrahydro-6-methyl-2-[2-oxo-2-4-(dimethylamino)phenyl)ethylidene]-4-[2-(trifluoromethyl)phenyl]-3,5-pyridine-dicarboxylate]	> 3	0.2					
CCOC(=O)[C@H]1/C(=C/C(=O)c2ccccc2)NC(C)=C([N+](=O)[O-])[C@@H]1c1ccccc1C(F)(F)F (relative stereo) [Example 7, (2Z,3α,4β)-(±)-1,2,3,4-Tetrahydro-6-methyl-5-nitro-2-[2-oxo-2-phenylethylidene]-4-[2-(trifluoromethyl)phenyl]-3-pyridinedicarboxylic acid ethyl ester]	> 3	0.1	130				
CC1=C([N+](=O)[O-])[C@H](c2ccccc2C(F)(F)F)[C@@H](C(=O)c2ccccc2)/C(=C/C(=O)c2ccccc2)N1 (relative stereo) [Example 8, [trans-(Z)]-2-[3-Benzoyl-3,4-dihydro-6-methyl-5-nitro-4-[2-(trifluoromethyl)phenyl]-2-(1H)pyridinylidene]1-phenylethanone]	> 3	0.3	> 1000				
CCOC(=O)C1=C(C)N/C(=C\C(=O)c2ccccc2)[C@@H](C(=O)c2ccccc2)[C@@H]1c1ccccc1C(F)(F)F (relative stereo) [Example 9, (4α,5β,6Z)-(±)-Ethyl-5-benzoyl-1,4,5,6-tetrahydro-2-methyl-6-(2-oxo-2-phenylethylidene)-4-[2-trifluoromethyl)phenyl]3-pyridinecarboxylate]	1.2	0.4	110				
CCOC(=O)[C@@H]1/C(=C/C(=O)c2ccccc2)NC2=C(C(=O)CCC2)[C@H]1c1ccccc1C(F)(F)F (relative stereo) [Example 10]	2	1.4	> 1000				
CCOC(=O)[C@@H]1/C(=C2\CCc3ccccc3C2=O)NC(C)=C(C#N)[C@H]1c1ccccc1C(F)(F)F (relative stereo) [Example 11]		1	> 1000				1
CCOC(=O)C1=C(C)NC(=C2CCc3ccccc3C2=O)[C@@H](C(=O)OCC)[C@@H]1c1ccccc1C(F)(F)F (relative stereo) [Example 12]			> 1000				
CCOC(=O)C1=C(C)N/C(=C\C(=O)c2ccccc2)[C@@H](C(=O)OCC)[C@@H]1c1cccc([N+](=O)[O-])c1 (relative stereo) [Example 14, (2Z,3α,4β)-(±)-Diethyl-1,2,3,4-tetrahydro-6-methyl-2-[2-oxo-2-phenylethylidene]-4-[3-nitrophenyl]-3,5-pyridinedioarboxylate]	1	1	85				
CCOC(=O)C1=C(C)N/C(=C\C(=O)c2ccccc2)[C@@H](C(=O)OCC)[C@@H]1c1cccc(Cl)c1Cl (relative stereo) [Example 15, (2Z,3α,4β)-(±)-Diethyl-1,2,3,4-tetrahydro-6-methyl-2-[2-oxo-2-phenylethylidene]-4-2,3-dichlorophenyl]-3,5-pyridinedicarboxylate]	1	1	180				
(2Z,3α,4β)-(±)-Diethyl-1,2,3,4-tetrahydro-6-methyl-2-[2-oxo-2-phenylethylidene]-4-[2-nitrophenyl-3,5-pyridinedicarboxylate [Example 13]	1.0	1.0	39				
